Assay results taken from patent US7208515B2, “Diphenylmethyl compounds useful as muscarinic receptor antagonists” (Theravance, Inc., priority 2004, dated 2007).

Molecular target: T1, hM3 receptor (CHO cells) (Homo sapiens, UniProt P20309)
T1 construct: expressed in transfected cells
Assay: Blockade of agonist-mediated calcium release via FLIPR assay
Type: cell-based
Conditions: CHO cells stably expressing the hM3 receptor, oxotremorine
Description: C. Blockade of Agonist-Mediated Calcium Release via FLIPR Assays
Muscarinic receptor subtypes (M1, M3 and M5 receptors), which couple to Gq proteins, activate the phospholipase C (PLC) pathway upon agonist binding to the receptor. As a result, activated PLC hydrolyzes phosphatyl inositol diphosphate (PIP2) to diacylglycerol (DAG) and phosphatidyl-1,4,5-triphosphate (IP3), which in turn generates calcium release from intracellular stores, i.e., endoplasmic and sarcoplasmic reticulum. […] This fluorescence event was measured in real time by the FLIPR, which detected the change in fluorescence from a monolayer of cells cloned with human M1 and M3, and chimpanzee M5 receptors. Antagonist potency was determined by the ability of antagonists to inhibit agonist-mediated increases in intracellular calcium. […]
To determine antagonist potency, the dose-dependent stimulation of intracellular Ca^2+ release for oxotremorine was first determined so that antagonist potency can later be measured against oxotremorine stimulation at an EC90 concentration. […]
The parameters used for the FLIPR were: exposure length of 0.4 seconds, laser strength of 0.5 watts, excitation wavelength of 488 nm, and emission wavelength of 550 nm. Baseline was determined by measuring the change in fluorescence for 10 seconds prior to addition of agonist. […]

T1 sequence (P20309 whole entry): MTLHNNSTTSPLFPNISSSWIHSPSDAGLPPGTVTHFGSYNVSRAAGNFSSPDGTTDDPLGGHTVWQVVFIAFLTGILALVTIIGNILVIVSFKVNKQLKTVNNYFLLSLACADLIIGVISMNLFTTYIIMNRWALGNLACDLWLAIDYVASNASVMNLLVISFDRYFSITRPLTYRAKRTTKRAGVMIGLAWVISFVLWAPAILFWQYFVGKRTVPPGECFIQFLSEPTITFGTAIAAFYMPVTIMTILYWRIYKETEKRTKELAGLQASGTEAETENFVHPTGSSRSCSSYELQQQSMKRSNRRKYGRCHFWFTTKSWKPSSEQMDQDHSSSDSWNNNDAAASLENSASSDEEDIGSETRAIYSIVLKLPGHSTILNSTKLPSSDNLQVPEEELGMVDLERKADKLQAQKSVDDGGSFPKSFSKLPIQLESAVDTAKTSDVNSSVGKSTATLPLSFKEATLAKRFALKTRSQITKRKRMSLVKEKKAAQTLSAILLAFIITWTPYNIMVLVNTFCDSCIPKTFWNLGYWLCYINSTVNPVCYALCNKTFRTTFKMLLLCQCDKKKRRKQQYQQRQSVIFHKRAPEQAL

Ki: < 100 nM
Structure (SMILES): CNCC(=O)NCCCCCN1CC[C@@H](C(C(N)=O)(c2ccccc2)c2ccccc2)C1 [Example 1]
